Here are results for four compounds from publication PMC7949122 (The Journal of Biological Chemistry, 2021).

Non-standard residues stand in square brackets, D forms with d. Residues, ends and D or L forms follow the SMILES beside them. No end group written: not given here. Hyp = O=C(O)[C@@H]1C[C@@H](O)CN1; 2Thi = N[C@@H](Cc1cccs1)C(=O)O; Gly(N-cHex) = O=C(O)CNC1CCCCC1

Test [1] concerns the target T1, mutant human B2R(Ø) lacking AltB2R expression (Homo sapiens, UniProt P30411).
T1 construct: expressed in transfected cells; host or cells: HEK293A
T1 sequence (P30411 1-391): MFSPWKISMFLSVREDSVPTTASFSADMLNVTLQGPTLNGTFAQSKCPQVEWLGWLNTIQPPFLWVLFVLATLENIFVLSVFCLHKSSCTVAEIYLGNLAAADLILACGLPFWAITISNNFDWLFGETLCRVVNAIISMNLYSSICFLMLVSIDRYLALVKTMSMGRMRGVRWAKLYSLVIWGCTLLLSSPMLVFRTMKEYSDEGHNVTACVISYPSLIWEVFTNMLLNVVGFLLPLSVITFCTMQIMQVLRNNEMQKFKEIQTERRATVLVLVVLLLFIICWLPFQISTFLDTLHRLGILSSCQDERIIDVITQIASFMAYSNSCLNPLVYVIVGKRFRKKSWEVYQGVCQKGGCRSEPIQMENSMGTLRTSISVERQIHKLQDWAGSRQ
As to the kind of experiment: Competitive displacement of [3H]-BK binding, living B2R(Ø)-transfected HEK293A cells. Conditions: n = 3. As for the experimental part: Black and gray, negative controls with secondary antibodies only; blue, ^FlagB2R transfected cells; red, ^FlagB2R^(Ø) transfected cells. […] Reported Kd are expressed in nM. Bmax is expressed in fmol/10^6 cells.
Radioligand competition binding assay was performed using adherent living HEK293A cells transiently transfected with B2R or B2R^(Ø), as we previously described ([54]). […] Saturation binding assays were performed using adherent living HEK293A cells transiently transfected with B2R or B2R^(Ø). […] After the incubation time, cells were washed twice with ice-cold PBS, lysed with 200 μl of 0.1 N sodium hydroxide, and transferred into scintillation vials containing 4 ml scintillation liquid. The radioactivity was measured with a β-counter and data were analyzed using GraphPad 6.01 (GraphPad Software, Inc).

In test [2] the target is T2, mutant human B2R(Ø) lacking AltB2R expression (β-arrestin2) (Homo sapiens, UniProt P30411).
T2 construct: expressed in transfected cells; host or cells: HEK293A
T2 sequence (P30411 1-391): T1 sequence (P30411 1-391)
As to the kind of experiment: BRET β-arrestin2 recruitment at the plasma membrane, B2R(Ø)-transfected HEK293A cells. The class given is cell-based. From the text:
(§1) D, β-arrestin2 recruitment at the plasma membrane after stimulation with NG291 in HEK293A cells transfected with B2R and B2R^(Ø) by following BRET proximity of β-arr2-RLuc2 and rGFP-CAAX. […] Note.
(§2) Since both G proteins and β-arrestins commonly participate in activation of MAPK pathways, we extended the BRET analysis to determine the effects of AltB2R on the efficacy of β-arrestin2 recruitment at the plasma membrane of HEK293A cells transfected with vectors coding for β-arrestin2-RLucII, rGFP-CAAX, and B2R or B2R^(Ø). BRET signals were monitored after addition of NG291.
(§3) BRET assays were performed as previously described ([56]). Briefly, HEK293A cells were grown in 96-well plates for 48 h after transient transfection with 10 μg BRET constructs (Gαq-RLuc2, Gβ1, and GFP10-Gγ1) (Gαi2-Rluc2, Gβ1, and GFP10-Gγ1) (Gαi3-Rluc2, Gβ1, and GFP10-Gγ1) (β-arrestin2-Rluc2 and rGFP-CAAX) and B2R or B2R^(Ø). Cells were washed twice with stimulation buffer (10 mM HEPES pH 7.4, 1 mM CaCl2, 0.5 mM MgCl2, 4.2 mM KCl, 146 mM NaCl, 5.5 mM glucose) and incubated for 1 h in 80 μl stimulation buffer at room temperature. […] BRET readings were collected in the […] (Rluc2) and […] (GFP10) windows, and BRET signal was calculated as a ratio of GFP10 on Rluc2. […]
In general terms: BRET reads energy transfer from a luciferase to a nearby fluorophore.

The target of the next test is T3, human B2R (Gαq) (Homo sapiens, UniProt P30411).
T3 construct: expressed in transfected cells; host or cells: HEK293A
T3 sequence (P30411 1-391): T1 sequence (P30411 1-391)
As to the kind of experiment: BRET G protein coupling Gαq-RLuc2/GFP10-Gγ1, B2R-transfected HEK293A cells. Conditions: HEK293-A; relative to maximum B2R-induced BRET response; mean ± SD, n = 3; †p < 0.05 vs B2R(Ø); read-out: Emax, Gαq/Gγ1 dissociation, B2R. It counts as cell-based.
From the text: (§4) To test this hypothesis, we used live-cell bioluminescence resonance energy transfer (BRET) measurements to monitor the activation of G proteins by B2R. HEK293A cells were cotransfected with vectors coding for Gαq-RlucII or Gαi2/3-RlucII, Gβ, GFP10-Gγ1, and B2R or B2R^(Ø). In this experimental setting, the dissociation of Gαq-RlucII or Gαi2/3-RlucII from GFP10-Gγ1 results in a decrease of BRET signals. BRET data in Figure 6, A–C are presented relative to the maximum B2R-induced BRET response.
as §1, §3

Test [3] concerns the target T4, mutant human B2R(Ø) lacking AltB2R expression (Gαi3) (Homo sapiens, UniProt P30411).
T4 construct: expressed in transfected cells; host or cells: HEK293A
T4 sequence (P30411 1-391): T1 sequence (P30411 1-391)
As to the kind of experiment: BRET G protein coupling Gαi3-RLuc2/GFP10-Gγ1, B2R(Ø)-transfected HEK293A cells. It counts as cell-based. Conditions: HEK293-A; relative to maximum B2R-induced BRET response; mean ± SD, n = 4; read-out: Emax, Gαi3/Gγ1 dissociation, B2R(Ø).
From the text: as §4, §1, §3

For the next test, the target named is T5, human B2R (β-arrestin2) (Homo sapiens, UniProt P30411).
T5 construct: expressed in transfected cells; host or cells: HEK293A
T5 sequence (P30411 1-391): T1 sequence (P30411 1-391)
The test is described as follows: BRET β-arrestin2 recruitment at the plasma membrane, B2R-transfected HEK293A cells. The class given is cell-based. Conditions: HEK293-A.
From the text: as §1, §2, §3

In test [4] the target is T6, mutant human B2R(Ø) lacking AltB2R expression (Gαi2) (Homo sapiens, UniProt P30411).
T6 construct: expressed in transfected cells; host or cells: HEK293A
T6 sequence (P30411 1-391): T1 sequence (P30411 1-391)
The test is described as follows: BRET G protein coupling Gαi2-RLuc2/GFP10-Gγ1, B2R(Ø)-transfected HEK293A cells. The class given is cell-based. The note with it: HEK293-A; relative to maximum B2R-induced BRET response; mean ± SD, n = 4; read-out: Emax, Gαi2/Gγ1 dissociation, B2R(Ø).
From the text: as §4, §1, §3

Test [5] concerns the target T1, mutant human B2R(Ø) lacking AltB2R expression. The test is described as follows: Inositol phosphate (IP1) production, IP-One Gq assay (FRET), B2R(Ø)-transfected HEK293A cells (lacking AltB2R). The class given is cell-based. The note with it: for Emax: HEK293-A, Emax in B2R(Ø) versus B2R cells, read-out: reduction of efficacy (Emax) for IP1 formation in cells without AltB2R expression. The protocol: This construct is a monocistronic version of B2R with the mutation C168T. In this mutant, a premature stop codon is introduced in the AltB2R coding sequence (Q11stop) in a manner synonymous for B2R (L56 L). Thus, the B2R encodes B2R and AltB2R, whereas mutant B2R^(Ø) encodes only B2R.
(§5) To consolidate the western blot data, AlphaLISA assays were also conducted in parallel in the same cell lines for the quantitative analyses of B2R-stimulated ERK1/2 phosphorylation (Fig. 5, B and C).
(§6) Quantitative densitometry analysis of pERK1/2 levels over time (top right). pERK/total ERK ratios were calculated for each time point.
HeLa, HEK293T, and HEK293A cells were maintained in Dulbecco's modified Eagle's medium (DMEM) containing 10% fetal bovine serum (FBS) (Wisent, #080-450) and 1% antibiotic-antimycotic (Wisent, #450-115-EL) under standard conditions. HEK293A cells were transiently transfected with the pcDNA3.1-vector containing the cDNA of human B2R or B2R^(Ø), using polyethylenimine (PEI) or JetPrime (Polyplus). HeLa cells were transiently transfected with B2R and AltB2R constructs using GeneCellin (Bulldog Bio Inc) or JetPrime (Polyplus) transfection reagent, as per the manufacturer’s instructions, and incubated 24 h at 37 °C, unless otherwise stated.
Inositol monophosphate (IP1) production was determined using the IP-One Gq assay kits (Cisbio, #62IPAPEB), according to the manufacturer's instructions. Fluorescence resonance energy transfer (FRET) signals were measured with a Tecan M1000 plate reader.

The target in test [6] is T7, mutant human B2R(Ø) lacking AltB2R expression (Gαq) (Homo sapiens, UniProt P30411).
T7 construct: expressed in transfected cells; host or cells: HEK293A
T7 sequence (P30411 1-391): T1 sequence (P30411 1-391)
The test is described as follows: BRET G protein coupling Gαq-RLuc2/GFP10-Gγ1, B2R(Ø)-transfected HEK293A cells. It counts as cell-based. The note with it: HEK293-A; relative to maximum B2R-induced BRET response; mean ± SD, n = 3; read-out: Emax, Gαq/Gγ1 dissociation, B2R(Ø).
From the text: as §4, §1, §3

The next test deals with T8, human B2R (Gαi2) (Homo sapiens, UniProt P30411).
T8 construct: expressed in transfected cells; host or cells: HEK293A
T8 sequence (P30411 1-391): T1 sequence (P30411 1-391)
The test is described as follows: BRET G protein coupling Gαi2-RLuc2/GFP10-Gγ1, B2R-transfected HEK293A cells. The class given is cell-based. The note with it: HEK293-A; relative to maximum B2R-induced BRET response; mean ± SD, n = 4; ††p < 0.01 vs B2R(Ø); read-out: Emax, Gαi2/Gγ1 dissociation, B2R.
From the text: as §4, §1, §3

Test [7] deals with mutant human B2R(Ø) lacking AltB2R expression (ERK1/2 phosphorylation). The test is described as follows: ERK1/2 phosphorylation (AlphaLISA SureFire Ultra), B2R(Ø)- versus B2R-transfected HEK293A cells. The note with it: 1 μM agonist, n = 2. It counts as cell-based. The protocol: as §5, §6
For orientation: In Alpha technology, singlet oxygen from a donor bead excites a nearby acceptor bead.

In the next test the target is T9, human B2R (Gαi3) (Homo sapiens, UniProt P30411).
T9 construct: expressed in transfected cells; host or cells: HEK293A
T9 sequence (P30411 1-391): T1 sequence (P30411 1-391)
As to the kind of experiment: BRET G protein coupling Gαi3-RLuc2/GFP10-Gγ1, B2R-transfected HEK293A cells. It counts as cell-based. The note with it: HEK293-A; relative to maximum B2R-induced BRET response; mean ± SD, n = 4; †p < 0.05 vs B2R(Ø); read-out: Emax, Gαi3/Gγ1 dissociation, B2R.
From the text: as §4, §1, §3

Turning to `CC(=O)Nc1ccc(/C=C/C(=O)NCC(=O)N(C)c2ccc(Cl)c(COc3cccc4ccc(C)nc34)c2Cl)cn1` [FR173657], the “binding affinity, B2R versus B2R(Ø)” value in test [1] is given as “same affinities”.

As to `N=C(N)NCCC[C@H](NC(=O)[C@H](Cc1cccs1)NC(=O)CN(C(=O)[C@H](CO)NC(=O)[C@H](Cc1cccs1)NC(=O)CNC(=O)[C@@H]1C[C@@H](O)CN1C(=O)[C@@H]1CCCN1C(=O)[C@@H](N)CCCNC(=N)N)C1CCCCC1)C(=O)O` [NG291, [Hyp^3,Thi^5,^NChg^7,Thi^8]-BK] (H-RP[Hyp]G[2Thi]S[Gly(N-cHex)][2Thi]R-OH; N-terminus and C-terminus assumed), in test [2] (BRET, B2R versus B2R(Ø), BK: data not shown), the “recruitment of β-arrestin2, cells expressing or not AltB2R” value is “no difference in the recruitment of β-arrestin2”. Further, the Emax in test [2] (HEK293-A, β-arr2-RLuc2 and rGFP-CAAX, mean ± SD, n = 3) was determined as 88 ± 9%; at human B2R (Gαq) it was 100 ± 10%; in test [3] it was 60 ± 22%; on human B2R (β-arrestin2), 100 ± 10%; in test [4], 66 ± 12%; in test [5], 22%. Further, the figures for the Emax (in test [6]; at human B2R (Gαi2); at human B2R (Gαi3)) were 74 ± 8%, 100 ± 11% and 100 ± 21%, respectively. In [1], the “binding affinity, B2R versus B2R(Ø)” value is listed as “same affinities”. In addition, the “potency (EC50) for IP1 formation, B2R- versus B2R(Ø)-transfected cells” value in [5] (comparison of EC50 between B2R and B2R(Ø), unpaired t-test) is “no significant difference in potencies (EC50 values)”. Further, the “maximal levels of phospho-ERK1/2 (AlphaLISA), B2R(Ø) versus B2R” value in test [7] is “decreased maximal levels of phospho-ERK1/2”.

Consider `COc1ccc(C[C@@H](CN[C@@H](CCCNC(=N)N)C(=O)O)NC(=O)[C@@H]2CCCN2C(=O)[C@H](CO)NC(=O)[C@H](Cc2cccs2)NC(=O)CNC(=O)[C@@H]2C[C@@H](O)CN2C(=O)[C@@H]2CCCN2C(=O)[C@@H](N)CCCNC(=N)N)cc1` [RMP-7, [Hyp^3,Thi^5,(4-Me)Tyr^8(ΨCH2NH)Arg^9]-BK] (HELM PEPTIDE1{R.P.[Hyp].G.[O=C([C@H](Cc1cccs1)N[*:1])[*:2]].S.P.[COc1ccc(C[C@@H](CN[C@@H](CCCNC(=N)N)C(=O)O)N[*:1])cc1]}$$$$V2.0), for which the Emax in test [5] was 16%.

Regarding “RPPGFSPFR [BK, H-Arg^1-Pro^2-Pro^3-Gly^4-Phe^5-Ser^6-Pro^7-Phe^8-Arg^9-OH]”, the “binding affinity, B2R versus B2R(Ø)” value in test [1] is given as “same affinities”.
